Assay results published in article PMC8505397, “Development of peptides targeting receptor binding site of the envelope glycoprotein to contain the West Nile virus infection” (Scientific Reports, 2021).
Where “and” joins values, the source holds several entries; their conditions need not be identical. Equal values may be shown once. Read-outs that look alike come from different tables or passages of the source.

Legend:
[1] = test system: WNV virus like particles (VLP) that possess C, M, and E proteins; details: for luciferase luminescence, original data (single wells, duplicates): Avg.VC 555022 / Avg.CC 1551.33 (plate 1), 522383 / 1614.33 (plate 2)
[2] = biological target: T1, interaction between rDIII and ~ 15 kDa receptor of hBMECs (West Nile virus, UniProt P06935); experiment: Blocking of interaction between rDIII and proteins of hBMECs by peptides (Western blot); assay type: binding, West Nile virus / human; details: 2.5 µg (0.19 nM) rDIII pre-incubated with tenfold molar excess (1.9 nM) of peptide
T1 construct: rDIII – recombinant domain III; made in house; host or cells: E. coli M15
T1 sequence (P06935 584-692 limits assumed): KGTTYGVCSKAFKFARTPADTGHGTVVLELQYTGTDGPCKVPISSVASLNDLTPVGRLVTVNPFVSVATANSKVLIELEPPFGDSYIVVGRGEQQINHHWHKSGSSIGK
Protocol: First, concentration-dependent ELISA and Western blot were performed to get the minimum concentration of rDIII required to show its interaction with hBMECs proteins. Details are presented in Supplementary Method S12 and Supplementary Method S13. Subsequently, the ability of 7-mer and 12-mer peptides to block the interaction between rDIII and proteins of hBMECs was tested. A tenfold molar excess of peptides was incubated with rDIII for 1 h at room temperature. Such pre-incubated rDIII was subsequently used in the assays. Details of both methods are described in Supplementary Method S12 and Supplementary Method S13. […]
Blocking of interaction between rDIII and proteins of hBMECs by peptides (Western blot).
Two hundred micrograms of proteins extracted from hBMECs were separated on 2-well PAGE […]
gel (12% polyacrylamide gel) and transferred on 0.45 μm nitrocellulose membrane (Amersham Protran; GE Healthcare) for 1 h at 30 V. Details of LDS-PAGE are described in Supplementary Methods S7. The membrane was cut horizontally to obtain proteins of molecular weight between ~10 kDa to ~25 kDa. Subsequently, this membrane was sliced vertically to obtain 0.3 cm strips, which were then used in Western blot (Supplementary Fig.
The NC strips with transblotted hBMECs proteins were first incubated with rDIII at various concentrations to find out the minimal concentration of rDIII required to detect the interaction with hBMECs proteins. Non-specific binding sites were blocked with 1% BSA in 0.05% TBST (pH 7.2) for 1 h at room temperature and constant shaking followed by a washing step for 5 min with 0.05% TBST. The NC strips were incubated with rDIII at different concentrations (5 µg, 2.5 µg, 2 µg, 1 µg, 500 ng) diluted in 1 mL of 0.05% TBST for 3 h at room temperature and constant shaking. After 3 washings with 0.05% TBST, strips were incubated with HisProbe-HRP conjugate (1:5,000 dilution in 0.1% BSA in 0.05% TBST; Thermo Fisher Scientific) for 30 min at room temperature. Six washings, each of 5 min were performed before incubating the strips in SuperSignal chemiluminescence substrate (Thermo Fisher Scientific). The signal was captured on the C-DiGit Blot Scanner (Odyssey CLx, LI-COR Biosciences). For negative control, rDIII was excluded from the above-mentioned protocol.
To block the interaction, the NC strips were blocked as described above.
Simultaneously, 2.5 µg (0.19 nM) of rDIII were pre-incubated with 2.75 µg of each peptide (10-fold molar excess; 1.9 nM) in TBS for 1 h at room temperature. Further on, strips were incubated with pre-incubated rDIII for 3 h at room temperature with constant shaking. After 3 washings with 0.05% TBST, strips were incubated with HisProbe-HRP conjugate as described above. […]

## CC[C@H](C)[C@@H]1NC(=O)[C@@H](NC(=O)[C@H](C)N)CSSC[C@@H](C(=O)NCC(=O)NCC(=O)NCC(=O)N[C@@H](CO)C(=O)O)NC(=O)[C@H](C)NC(=O)[C@H](CCCNC(=N)N)NC(=O)[C@H]([C@@H](C)O)NC(=O)[C@H](CO)NC(=O)[C@H](CO)NC(=O)[C@H](Cc2c[nH]cn2)NC1=O [CP4, CIHSSTRAC]
[1]; 48 h
  EC50: 17 nM
  EC50 (neutralization of VLP) as concentration: 0.1194 µg/mL
[1]; dilution 90
  luciferase luminescence, original data (single wells, duplicates): 125654 and 100462
[1]; dilution of peptide 30, 666 nanograms of peptide / well
  Avg. inhibition of VLP infection: 95%
[1]; dilution of peptide 90, 222 nanograms of peptide / well
  Avg. inhibition of VLP infection: 80%
[1]; dilution of peptide 270, 74 nanograms of peptide / well
  Avg. inhibition of VLP infection: 74%
[1]; dilution of peptide 810, 24.7 nanograms of peptide / well
  Avg. inhibition of VLP infection: 57%
[1]; dilution of peptide 2430, 8.2 nanograms of peptide / well
  Avg. inhibition of VLP infection: 33%
[1]; dilution of peptide 7290, 2.7 nanograms of peptide / well
  Avg. inhibition of VLP infection: 20%
[1]; listed as B, dilution 30
  luciferase luminescence, original data (single wells, duplicates): 31234 and 31350
[1]; listed as D, dilution 270
  luciferase luminescence, original data (single wells, duplicates): 151785 and 142766
[1]; listed as E, dilution 810
  luciferase luminescence, original data (single wells, duplicates): 243092 and 236564
[1]; listed as F, dilution 2430
  luciferase luminescence, original data (single wells, duplicates): 368265 and 376779
[1]; listed as G, dilution 7290
  luciferase luminescence, original data (single wells, duplicates): 424174 and 466082
[1]; sigmoidal 4PL interpolation from EC50 dilution
  half maximal effective concentration in nanograms/ml: 119.48 nanograms/ml
[1]; well volume 150 ul, sigmoidal 4PL interpolation from EC50 dilution
  half maximal effective concentration in nanograms/well (150 ul): 17.94 nanograms/well
[2]
  inhibition of the interaction between rDIII and ~ 15 kDa hBMECs receptor (Western blot): inhibition of the interaction was confirmed
